ChEMBL document CHEMBL1135335, “Multisubstrate analogue inhibitors of glucosamine-6-phosphate synthase from Candida albicans” (Bioorg Med Chem Lett, 2002)
Active and inactive are the calls of the source. The calls are words filed in the database; no cut-off is given here.

System: not listed separately
Assay: Concentration required to inhibit glucosamine-6-phosphate synthase (GFAT) isolated from Candida albicans

| Compound | IC50 [µM] |
| --- | --- |
| NC(CCCCCP(=O)(O)O)C(=O)O (configuration not stated) [AP-7] | 270 |
| NC(CP(=O)(O)O)C(=O)O (configuration not stated) | 0.01 |
| O=C(O)[C@@H]1C[C@H](CP(=O)(O)O)CCN1 [SELFOTEL] | 0.4 |
| NC(CCCP(=O)(O)O)C(=O)O (configuration not stated) | 210 |
| NC(CCCCP(=O)(O)O)C(=O)O (configuration not stated) | 250 |
| NC(CCP(=O)(O)O)C(=O)O (configuration not stated) | 10 |

System: Saccharomyces cerevisiae
Assay: Inhibitory activity against glucosamine-6-phosphate synthase (GFAT) isolated from Saccharomyces cerevisiae at concentrations <10 mM; NI means no inhibition

| Compound | inhibition |
| --- | --- |
| NC(CP(=O)(O)O)C(=O)O (configuration not stated) | inactive |
